Test results as given in US4010191A, “Acyl derivatives of substituted bis-arylalkylamino compounds” (Deutsche Gold- und Silber-Scheideanstalt vormals Roessler, priority 1969, dated 1977).

Experiments:
[1] = test system: detached tracheas obtained from guinea pigs; test: Broncholytic action on detached tracheas (histamine spasm); design: species or system guinea pig; settings: comparative tests
heart = test: Heart and circulatory action, comparative tests with papaverine (Langendorff hearts / dogs); design: species or system guinea pig; dog
Experimental: The compounds of the invention were tested in detached guinea pig hearts by the method of Langendorff (Pfluger's Arch. 61 (1895) 291) in respect of the coronary flow, the inotropic action and the heart frequency. Also there were tested in anaesthetized dogs which had been subjected to a thoracostomy.
The significant parameters of the heart and circulatory activity in this case were determined by means of electromagnetic flux measurement and pressure measurement in the interior of the heart ventricle.

SMILES: COc1ccc(Cc2nccc3cc(OC)c(OC)cc23)cc1OC [papaverine]
- duration of action compared to the compounds of the invention [1]: substantially shorter duration
- inotropy compared with the compounds of the invention (heart): smaller inotropy
- duration of action compared with the compounds of the invention (heart; heart and circulatory action): substantially shorter duration of action
